The subject of assay [1] is high lipid mode white rats. The assay can be described thus: Therapeutic blood lipid lowering in hyperlipoidemia mode white rats (Example 3). Type of assay: in vivo, Wistar male white rats. From the text: High lipid feed formula: cholesterol 3%, lard 10%, sodium cholate 0.5%, basal feed: 86.5% (formula: flour 17.14%, rice flour 8.57%, maize 17.14%, bran 21%, fish flour 1.71%, dairy salt 0.857%, vitamin 0.085%, bean material 17.14%).
72 Wistar white male rats of 170±10 g of body weight were divided into 6 groups randomly and numbered. Each group included 12 rats. The rats were fed with common standard feed under experimental conditions and observed for 7 days, and its blood was sampled from tail for testing serum total cholesterol (TC). […] From the 8th day, the group I was set as a blank group, and was fed with common standard feed. Other groups were fed with high lipid feed for 8 days in a row, and the blood was sampled from tail on the next day for testing TC. […] The rats then were divided into 5 groups randomly (see table 12) according to TC levels. Each group included 10 rats (10 rats who were unsuccessful blood lipid modes were discarded). The rats were ted with high lipid teed continuously. Group was a high lipid feed mode control group. Group III was a Simvastatin 10 mg/kg group. Group IV was a GB-O group. Group V was a GB-H group. Group VI was a GB-K group. The high lipid feed mode control group was fed with high lipid feed together with distilled water. Groups III, IV, V, and VI were fed with high lipid feed together with required simvastatin, GB-O, GB-H, and GB-K suspensions (formulated by grinding with 0.5% sodium carboxymethycellulose CMC-Na) respectively. The dosing amount was 0.046 mmol/kg, and the amount of high lipid feed was 20 g per day for each rat. The grouping and the dosing amount for each group can be found in table 13.
(§1) The body weights of white rats were determined and recorded every day. The rats for each group were dosed basing, on its body weight by feeding for 14 days at 22° C. of room temperature and 40-50% of relative humidity. On the 14th day, after fasting and freely receiving water for 16 hours, the blood was sampled from aorta, placed for 30 min to blood coagulate, centrifugated for 15 min at 3000 r/min to separate serum. The values of serum total cholesterol (TC), and triglyceride (TG) were determined on an automatic analyzer using enzymatic colorimetry, the value of high density lipoprotein cholesterol (HDL) was determined using a phosphotungstic acid-Mg precipitation method, and the value of low density lipoprotein cholesterol (LDL) was determined using a polyvinyl sulfate precipitation method.
All data were treated statistically, and are presented as means standard deviations (x±s). The significance of difference was judged by T test. The calculation of p value was obtained by comparing the high lipid mode group with the blank control group, and comparing other test drug groups with the high lipid mode group.
The reaction temperature was 37° C. The cholesterol ester in serum was first hydrolyzed into free cholesterol (FC) and fatty acid with cholesterol ester hydrolase (CEH.) Then, all FC in serum was oxidized into ch-4-en-3-one and H2O2) with cholesterol oxidase (COD). The resulting H2O2, was reacted with 4-aminoantipyrine (4-AAP) and 4-chlorophenol in the presence of peroxidase (POD) (Trinder reaction), to yield red quinine imine, which was colarimetrically tested at 500 nm wavelength.
The reaction temperature was 37° C. The triglyceride in serum was first hydrolyzed into glycerol and fatty acid with lipoprotein lipase (LPL). The resulting glycerol was reacted with ATP in the presence of glycerol kinase (GK), to produce glycerol-3-phosphate and ADP. The resulting glycerol-3-phosphate was oxidized into dihydroxyacetone phosphate and H2O2 with oxygen in the presence of glycerol phosphate oxidase (GPO). […]

Assay [2] concerns high lipid mode white rats. The assay can be described thus: Prophylactic blood lipid lowering in high lipid feed white rats (Example 2). Type of assay: in vivo, Wistar male white rats.
Description: High lipid feed formula: cholesterol 3%, lard 10%, sodium cholate 0.5%, basal feed: […] (formula: flour 17.14%, rice flour 8.57%, maize […], bran 21%, fish flour 1.71%, dairy salt 0.857%, vitamin 0.085%, bean material 17.14%).
60 Wistar White male rats of 150±10 g of body weight were fed with common standard feed for 5 days, and then divided into 6 groups randomly. Each group included 10 rats. Group I was a blank group, where the rats were fed with common standard feed. Group II was a high lipid feed mode control group. Group III was a Simvastatin 10 mg/kg group. Group IV was a GB-O group. Group V was a GB-H group. Group VI was a GB-K group. High lipid feed mode control group were fed with high lipid feed together with distilled water. Groups III, IV, V, and VI were fed with high lipid feed together with required simvastatin, GB-O, GB-H, and GB-K suspensions (formulated by grinding with 0.5% sodium […] CMC-Na) respectively. The dosing amount was 0.046 mmol/kg, and the amount of high lipid feed was 20 g per day for each rat. The grouping and the dosing amount for each group can be found in table 1.
as §1, with “The rats in each group” for “The rats for each group”, “were dosed basing on its” for “were dosed basing, on its”, “16 hours, its blood was” for “16 hours, the blood was”, “blood coagulate, and centrifugated for” for “blood coagulate, centrifugated for”, “determined using the polyvinyl sulfate” for “determined using a polyvinyl sulfate”
All data were treated statistically, and were presented as means±standard deviations (x±s). The significance of difference was judged by T test. The calculation of p value was obtained by comparing the high lipid mode group with the blank control group, and comparing other test drug groups with the high lipid mode group.
The reaction temperature was 37° C. The cholesterol ester in serum was first hydrolyzed into free cholesterol (FC) and fatty acid with cholesterol ester hydrolase (CEH). Then, all FC in serum was oxidized into ch-4-en-3-one and H2O2 with cholesterol oxidase (COD). The resulting H2O2 was reacted with 4-aminoantipyrine (4-AAP) and 4-chlorophenol in the presence of peroxidase (POD) (Trinder reaction), to yield red quinine imine, which was calorimetrically tested at a 500 nm wavelength.
The reaction temperature was 37° C. The triglyceride ire serum was first hydrolyzed into glycerol and fatty acid with lipoprotein lipase (LPL). The resulting glycerol was reacted with ATP in the presence of glycerol kinase (GK), to produce glycerol-3-phosphate and ADP. The resulting glycerol-3-phosphate was oxidized into dihydroxyacetone phosphate and H2O2 with oxygen in the presence of glycerol phosphate oxidase (GPO). The resulting H2O2 was reacted with 4-aminoantipyrine (4-AAP) and 4-chlorophenol in the presence of peroxidase (POD) (Trinder reaction), to yield red quinine imine, which was colorimetrically determined at a 500 nm wavelength.
The LDL in serum was precipitated using PVS. The serum TC and the Ch in the resulting supernatant were determined using the enzymatic methods described hereinabove, and the LDL-C was calculated by subtracting the Ch from the serum TC. The polyethylene glycol monoether (PEGME) was added in a suitable amount in order to facilitate the precipitation of LDL. […]

[3] abbreviates: group mean n=10, 15th day after administration.
The mark [4] stands for this setting: rats No. 1-10, 0.046 mmol/kg (Simvastatin 10 mg/kg), 15th day after administration.

Where “and” joins values, the source holds several entries; their conditions need not be identical. Identical values can stand only once.

As to `CCC(C)(C)C(=O)O[C@H]1C[C@@H](C)C=C2C=C[C@H](C)[C@H](CC[C@@H]3C[C@@H](O)CC(=O)O3)[C@H]21` [Simvastatin], the Total cholesterol value in assay [1] (Table 18, mean ± standard deviation, n=10) was 9.59 ± 1.50; in assay [2] (Table 6, mean ± standard deviation, n=10), 13.88 ± 3.27. The Triglyceride value in assay [1] (Table 19, mean ± standard deviation, n=10) worked out at 2.62 ± 0.54 mmol/L; in assay [2] (Table 7, mean ± standard deviation, n=10) it was 1.22 ± 0.1841 mmol/L. In addition, the “Low density lipoprotein cholesterol” value in assay [1] (Table 20, mean ± standard deviation, n=10) stood at 2.90 ± 0.67 mmol/L; in assay [2] (Table 8, mean ± standard deviation, n=10), 4.223 ± 0.9989 mmol/L. The “High density lipoprotein cholesterol” value in assay [1] (Table 21, mean ± standard deviation, n=10) is on record as 0.75 ± 0.20 mmol/L; in assay [2] (Table 9, mean ± standard deviation, n=10) it was 0.331 ± 0.0767 mmol/L. In addition, the “serum high density lipoprotein cholesterol (HDL) contents, Mean” value in assay [1] (setting [3]) is reported as 0.75 mmol/L; in assay [2] (setting [3]) it was 0.33 mmol/L. Besides, the “serum low density lipoprotein cholesterol (LDL) contents, Mean” value stood at 2.90 mmol/L in assay [1] (setting [3]) and 4.22 mmol/L in assay [2] (setting [3]). Moreover, the “serum total cholesterol (TC) contents, Mean” value in assay [1] (setting [3]) is 9.59 mmol/L; in assay [2] (group mean n=10, 0.046 mmol/kg (Simvastatin 10 mg/kg), 15th day after administration), 13.88 mmol/L. Also, the “serum triglyceride (TG) contents, Mean” value turned out to be 2.62 mmol/L in assay [1] (setting [3]) and 1.22 mmol/L in assay [2] (setting [3]). Besides, the “serum high density lipoprotein cholesterol (HDL) contents, individual rats” value in assay [1] (setting [4]) was 1.11 mmol/L and 0.93 mmol/L and 0.58 mmol/L and 0.67 mmol/L and 0.37 mmol/L and 0.81 mmol/L and 0.77 mmol/L and 0.92 mmol/L and 0.66 mmol/L and 0.72 mmol/L; in assay [2] (setting [4]), 0.26 mmol/L and 0.29 mmol/L and 0.31 mmol/L (2×) and 0.47 mmol/L and 0.39 mmol/L and 0.24 mmol/L and 0.33 mmol/L and 0.43 mmol/L and 0.28 mmol/L. Moreover, the “serum low density lipoprotein cholesterol (LDL) contents, individual rats” value is 2.51 mmol/L and 2.84 mmol/L and 2.67 mmol/L and 3.38 mmol/L and 1.97 mmol/L and 2.37 mmol/L and 3.71 mmol/L and 4.12 mmol/L and 3.12 mmol/L and 2.36 mmol/L in assay [1] (setting [4]); 5.81 mmol/L and 4.98 mmol/L and 5.32 mmol/L and 3.73 mmol/L and 5.14 mmol/L and 3.99 mmol/L and 3.33 mmol/L and 3.37 mmol/L and 3.63 mmol/L and 2.93 mmol/L in assay [2] (setting [4]). Further, the “serum triglyceride (TG) contents, individual rats” value in assay [1] (setting [4]) was 1.95 mmol/L and 3.67 mmol/L and 2.38 mmol/L and 2.08 mmol/L and 2.27 mmol/L and 3.27 mmol/L and 2.67 mmol/L and 2.36 mmol/L and 2.68 mmol/L and 2.96 mmol/L; in assay [2] (setting [4]), 1.12 mmol/L and 1.53 mmol/L and 0.93 mmol/L and 1.36 mmol/L and 1.26 mmol/L and 1.00 mmol/L and 1.19 mmol/L and 1.23 mmol/L and 1.31 mmol/L and 1.28 mmol/L. The “serum total cholesterol (TC) contents, individual rats” value is 7.61 mmol/L and 9.38 mmol/L and 8.81 mmol/L and 8.39 mmol/L and 12.67 mmol/L and 10.34 mmol/L and 9.37 mmol/L (2×) and 8.61 mmol/L and 11.34 mmol/L in assay [1] (rats No. 1-10, hyperlipoidemia mode, drug 14 days, 0.046 mmol/kg (Simvastatin 10 mg/kg), 15th day after administration); 19.21 mmol/L and 14.11 mmol/L and 12.51 mmol/L and 11.11 mmol/L and 9.19 mmol/L and 11.57 mmol/L and 10.31 mmol/L and 15.62 mmol/L and 13.60 mmol/L and 18.06 mmol/L in assay [2] (rats No. 1-10, high lipid feed plus drug 14 days, 0.046 mmol/kg (Simvastatin 10 mg/kg), 15th day after administration).

The values are drawn from patent US20140194506A1, “Use of Potassium Piperonyl Pentadienoate for Lowering Blood Lipid” (INNER MONGOLIA UNIVERSITY, priority 2011, published 2014).
